Patent US20230330093A1, “APPLICATION OF NITROGEN-CONTAINING SATURATED HETEROCYCLIC COMPOUND” (SHANGHAI PHARMACEUTICALS HOLDING CO., LTD., priority 2020, published 2023)
Like-named read-outs stand apart in the source and are kept apart here.

Tests used:
[1] = Plasma pharmacokinetics and bioavailability after intravenous and oral administration; type: in vivo, cynomolgus monkeys; conditions: for Vd/F: read-out: Vss/F
Experimental: Cynomolgus monkeys (3/sex/group: weight 3-5 kg, age 5-6 years old) were obtained from SuZhou XiShan ZhongKe Laboratory Animals (Shanghai, China). Animals were housed for a 7-day acclimation period before study. The monkeys were individually caged in a controlled temperature (18-26° C.) and humidity (50±20%) animal room with an air flow of 10 plus air changes per hour with fresh air. The lighting cycle was 12 h on and 12 h off, and the monkeys were fed once a day in the morning. All animal experiments were performed in accordance with the Animal Care and Use Guidelines set by the AMMS Animal Care and Use Committee.
The compound of Formula I was intravenously or orally administered to cynomolgus monkeys fasted overnight. The doses were 1 mg/kg (intravenous), 1 mg/kg, 3 mg/kg, and 9 mg/kg (oral). Blood samples were collected from a limb vein at 0, 5, and 15 min and at […], 0.5, 1, 2, 3, 4, 6, 8, 12, and 24 h (0.2 mL for each time point) after administration. All blood samples were centrifuged immediately after collection at 10,000×g for 5 min and the plasmas were stored at −75±10° C. until analysis. Plasma samples were prepared by protein precipitation. The concentrations of the compound of Formula I in plasma were determined by the validated liquid chromatography-tandem mass spectrometry method.
The pharmacokinetic parameters such as the area under the plasma concentration-time curve (AUC), maximum plasma concentration (Cmax), time to reach Cmax (Tmax), half-life (T1/2), total body plasma clearance (CL), mean residence time (MRT) and volume of distribution at steady state (Vss) were calculated by non-compartmental analysis with WinNonlin v1.3 (Pharsight, Mountain View, CA, USA). For allometric scaling, animal pharmacokinetic data were simulated by a two-compartment model with the Kinetica 5.1 software package (v.3.0; InnaPhase, Philadelphia, PA, USA).

[2] = system: cynomolgus monkeys; assay: 4-week repeated-dose safety study: clinical observations, mortality, body weight; type: in vivo; conditions: for body weight gain: no statistical significance
Experimental: The compound of Formula I was prepared and confirmed according to the method in CN103562191B. The 0.5% of sodium carboxymethyl cellulose (CMC-Na) was used as a vehicle. The compound of Formula I was stored at room temperature, protected from light and wetness. For cynomolgus monkey safety studies, the test substance was suspended in 0.5% CMC-Na at the relevant concentrations. The homogeneity, concentration and one week stability of prepared suspension was analyzed to ensure proper administration of the reported doses. The six month accelerated stability of active pharmaceutical ingredient (API) was tested by the inventor.
Healthy male and female cynomolgus monkeys aged 3-4 years were supplied by Hainan New Source Biotech Co. Ltd. (Hainan, China). The body weight range at the start of treatment was 3.2-5.8 kg for male and 2.5-3.7 kg for female. They were housed for a 36-day acclimation period before study. Once a day in the morning, animals eat and drink freely.
Mortality and clinical signs were evaluated daily from the beginning of the quarantine period. Each animal was examined at least twice daily for any change in behavior, reaction to treatment or illness after administration.
Observations included, but were not limited to the following: changes in skin and fur; eyes and mucous membranes; respiratory, circulatory, autonomic, central nervous systems and behavior patterns. Rectal temperature was measured before administration (twice), at 1 and 24 h after first administration, and before d26 administration and at 1 and 24 h after d26 administration. Body weight was measured every week. Food consumption was estimated for monkey every day. Ophthalmoscopy was conducted for the monkey study using a portable slit lamp (YZ2) and a direct ophthalmoscope (GFJY-01B).

[3] = both sexes, cynomolgus monkey, plasma, Monkey, 1 mg/kg iv
[4] = both sexes, cynomolgus monkey, plasma, Monkey, 1 mg/kg po
[5] = both sexes, cynomolgus monkey, plasma, Monkey, 3 mg/kg po
[6] = both sexes, cynomolgus monkey, plasma, Monkey, 9 mg/kg po
[7] = both sexes, cynomolgus, cynomolgus monkey, plasma, Monkey, 3 mg/kg po
[8] = both sexes, cynomolgus, cynomolgus monkey, plasma, Monkey, 9 mg/kg po

COC(=O)NCCCn1nc([C@@H](C)N(C(=O)[C@H]2CNCCO2)C2CC2)c2ccc(C)nc21 [compound of Formula I]
F ([1]; Monkey, 1 mg/kg po): 3.3%
F ([1]; Monkey, 3 mg/kg po): 8.0%
F ([1]; Monkey, 9 mg/kg po): 11.3%
half-life ([1]; both sexes, cynomolgus monkey, plasma, iv, 1 mg/kg, Monkey, 1 mg/kg iv): 2.73 h
half-life ([1]; both sexes, cynomolgus monkey, plasma, po, 1 mg/kg, Monkey, 1 mg/kg po): 2.9 h
half-life ([1]; both sexes, cynomolgus monkey, plasma, po, 9 mg/kg, Monkey, 9 mg/kg po): 5.99 h
half-life ([1]; both sexes, cynomolgus monkey, plasma, po, 9 mg/kg, oral 1, 3, 9 mg/kg, monkey plasma): 2.73 to 5.99 h
AUC [1, 3]: 421 ng·h/mL
Cmax [1, 3]: 466 ng/mL
MRT [1, 3]: 0.97 h
Vd ([1]; both sexes, cynomolgus monkey, plasma, Monkey, 1 mg/kg iv, read-out: Vss): 1.86 L/kg
AUC [1, 4]: 11.8 ng·h/mL
CL/F [1, 4]: 1410 mL/min/kg
Cmax [1, 4]: 3.99 ng/mL
MRT [1, 4]: 4.32 h
Tmax [1, 4]: 1 h
Vd/F [1, 4]: 366 L/kg
CL/F [1, 5]: 503 mL/min/kg
Vd/F [1, 5]: 104 L/kg
AUC [1, 6]: 426 ng·h/mL
Cmax [1, 6]: 263 ng/mL
MRT [1, 6]: 2.62 h
Tmax [1, 6]: 1 h
clearance ([1]; both sexes, cynomolgus monkey, plasma, intravenous 1 mg/kg, monkeys): 32.7 mL/min/kg
bioavailability ([1]; both sexes, cynomolgus monkey, plasma, monkeys, calculated from AUC0-24h after iv and po administration): 3.3 to 11.3%
half-life ([1]; both sexes, cynomolgus, cynomolgus monkey, plasma, po, 3 mg/kg, Monkey, 3 mg/kg po): 3.68 h
AUC [1, 7]: 99.4 ng·h/mL
Cmax [1, 7]: 42.2 ng/mL
MRT [1, 7]: 3.46 h
Tmax [1, 7]: 1.3 h
CL/F [1, 8]: 353 mL/min/kg
Vd/F [1, 8]: 55.5 L/kg
distribution volume ([1]; intravenous 1 mg/kg, monkeys): 1.86 L/kg
clinical signs of toxicity related to treatment in other animals ([2]; 20, 100, 450 mg/kg/day for 4 weeks): no apparent clinical signs of toxicity
body weight gain ([2]; high dose (450 mg/kg/day) females, controls 3.2±0.2): 2.7±0.4
body weight gain ([2]; high dose (450 mg/kg/day) males, controls 4.6±0.5): 4.1±0.5
mortality ([2]; high dose (450 mg/kg/day), nasogastric, day23): Treatment related early death occurred in one high dose female
